Measured values as given in patent US6458816B1, “Modified prodrug forms of AP/AMP” (Vion Pharmaceuticals, Inc., priority 2000, dated 2002).

Key:
[1] = In vivo PK of ortho phosphate bearing 3-AP prodrugs, single intravenous dose, beagle dog; settings: for V/F of 3-AP: 3-AP in dog after i.v. prodrug; for Cmax of 3-AP: equimolar doses (equivalent to 3 mg/kg of 3-AP)
Experimental: The pharmacokinetics of 3-AP prodrugs were characterized following administration of a single intravenous dose of 7.2-8.5 mg/kg of 3-AP phosphate prodrugs (equivalent to 3 mg/kg of 3-AP) to a beagle dog. The animal was dosed once with each prodrug weekly. After each dose, a washout period of at least 6 days was maintained before the next dose was administered. Concentrations of 3-AP (Triapine) and prodrug in serum were determined by HPLC and used to calculate various PK parameters. These PK parameters were compared to those of 3-AP from equimolar doses from a separate study. Mean serum drug concentration versus time data were analyzed by both compartmental and non-compartmental models. AUC, total body clearance (Cl), steady-state volume of distribution (Vd,ss), terminal half-life (T1/2), Cmax, Tmax were calculated for both 3-AP and the prodrugs.
Ortho-phosphate prodrug was shown previously to undergo rapid bioconversion to 3-AP when incubated in vitro with alkaline phosphatase. […] At no time have we been able to detect the presence of the intermediary phenol which is the expected cleavage product. […] The 4-chloro (16), 5-methoxy (9) and 5-fluoro (7) analogs were promising in this regard as reflected in their AUCs and half-lives.
Pharmacokinetic parameters of 3-AP itself following i.v. administration of equimolar doses of the prodrugs are presented in Table 3, below.

[2] = tested on: M109 murine lung carinoma; assay: Activity in the M109 Lung Carcinoma Model; assay type: in vivo, Balb/c mice; settings: for Relative Activity: CTX=Cytoxan
Source text: Twelve (12) 3-AP prodrugs have been evaluated for efficacy and toxicity using the M109 murine lung carinoma model in Balb/c mice. The procedure of the experiment is as follows: eight week aged female Balb/c mice (about 20 grams) were subcutaneously inoculated with 5×10^5/mouse of M109 murine lung carinoma cells at the right flank on day 0. The mice were then randomly grouped and each group consisted of 8-10 mice. 3-AP was used with the Triapine™ formulation while all 3-AP prodrugs were either dissolved or suspended in sterile deionized water. The body weight of mice and the tumor volume were measured twice weekly until the tumor in the control group became necrotic or at least one animal was dead in the control group.

[3] = Pharmacokinetic Study in beagle dogs at 20-80 mg/kg; assay type: in vivo, beagle dogs (Canis familiaris); settings: 30 and 40 mg/kg level
Experimental: Drug levels were determined for the animals at the intervals which are indicated in attached FIGS. 12-15.

[4] = Solubility in aqueous solution; assay type: physicochemical
[5] = Rising dose pharmacokinetic and toxicokinetic study in dogs with clinical observations; assay type: in vivo; settings: dog, Triapine itself dosed at 3 mg/kg, separate study
Experimental: Initially, both prodrugs were studied at a single dose of 7.5-7.7 mg/kg (equivalent to 3 mg/kg of Triapine).
PK parameters of Triapine and the two prodrugs are presented in Tables 4 and 5 and are compared to those obtained, in a separate study, from administration of 3 mg/kg of Triapine (equivalent to approximately 7.5 mg/kg of prodrugs).
Serum prodrug peak concentrations and AUCs, on the other hand, were not linear with dose, and appeared to be saturated at the doses investigated. Serum concentration-time profiles of prodrugs and Triapine are presented in attached FIGS. 4 and 5. […] The sustained serum Triapine levels were presumably attributable to the high serum levels of prodrugs as well as their low total body clearance.
Treatment-related clinical observations were recorded for both dogs. […] These observations were not present on day 2. The only adverse clinical sign on day 2 was the absence of stool.
Treatment-related clinical observations were recorded for the female treated at 80 mg/kg. […] In addition, the dog was pale (pallor), diarrhea was noted, and had yellow mucous in the stool. All observations were noted on day 1 and the dog was recovered on day 2.

Human serum stability = assay type: in vitro ADME; settings: incubation in human serum
Experimental: Bioconversion of prodrugs to 3-AP catalyzed by alkaline phosphatase. The bioactivation of dimethyl para-prodrug and a subset of the ortho phosphate prodrugs was studied using 4.65×10^−5 unit of phosphatase enzyme solution (Type VII-SA, from Bovine Intestinal Mucose, Sigma). Upon incubation with phosphatase, all the prodrugs were converted cleanly to the parent drug 3-AP. Under these experimental conditions, there was no significant increase in the half-life (T1/2) of bioactivation of ortho phosphate prodrugs compared to that of unsubstituted ortho prodrug (Table 1, below). Human serum stability studies were conducted by incubating the prodrugs at 37° C. in human serum.

solid tumors = settings: phase 1, patients with solid tumors; cited from earlier work
M109 lung carinoma cells = assay: Efficacy of 3-AP prodrugs on M109 Lung Carcinoma in Balb/c Mice; assay type: in vivo; settings: M109-bearing Balb/c mice
Source text: Drug treatment was started on day 5 according to the above schedule. […] The drinking water was autoclaved before use.

[6] = 3-AP in dog serum after i.v. prodrug, equimolar doses
[7] = 3-AP in dog serum after i.v. prodrug
[8] = prodrug in dog serum, single i.v. dose 7.2-8.5 mg/kg
[9] = prodrug in dog serum, single i.v. dose 7.2-8.5 mg/kg (equivalent to 3 mg/kg of 3-AP)
[10] = prodrug in dog, single i.v. dose 7.2-8.5 mg/kg
[11] = 60QD mpk ip, day 3-7, 10-14, 17-21
[12] = 5.5 (bid) mpk ip, day 3-7, 10-14
[13] = 100QD mpk ip, day 3-7, 10-14, 17-21

Compound | V/F of 3-AP ([1]; equimolar doses) | AUC of 3-AP [1, 6] | T1/2 of 3-AP [1, 6] | Cmax of 3-AP [1, 7] | AUC of prodrug [1, 8] | T1/2 of prodrug [1, 8] | Cmax of prodrug [1, 9] | Cl of prodrug [1, 10] | Vss of prodrug [1, 10] | BW Loss (%) [2, 11] | Inhibition (%) [2, 11] | Relative Activity [2, 11] | also measured
NC(=S)N/N=C/c1ncccc1NC(=O)OCc1cc(Cl)cc(Cl)c1OP(=O)(O)O [3,5-Di-Cl-(12)] | 3.99 L/kg | 163 µg·min/L | 0.9 h | 2.1 µg/mL | 6939 µg·min/L | 34 min | 140 µg/mL | 1.2 mL/min/kg | 0.08 L/kg | 9.0% | 58% | <CTX | –
NC(=S)N/N=C/c1ncccc1N [3-AP (1A)] | – | – | – | – | – | – | – | – | – | – | – | – | toxicity to the animals [3]: toxic; half life of 3-AP itself in the dog ([1]; 3-AP itself dosed, dog serum): ~1.5 h; solubility in aqueous solution [4]: less than 0.1 mg/ml; BW Loss (%) [2, 12]: 8.09%; Inhibition (%) [2, 12]: 60%; Relative Activity [2, 12]: <CTX; Cmax ([5]; Table 5): 2.3 µg/mL; AUC of Triapine [5]: 124 mg·min/L; Cmax of Triapine [5]: 2.3 µg/mL; V/F of Triapine [5]: 3.57 L/kg
Cc1cccc(COC(=O)Nc2cccnc2/C=N/NC(N)=S)c1OP(=O)(O)O [3-CH3-(15)] | 5.18 L/kg | 998 µg·min/L | 7.8 h | 1.5 µg/mL | 66756 µg·min/L | 318 min | 147 µg/mL | 0.11 mL/min/kg | 0.08 L/kg | – | – | – | Tmax of 3-AP [1, 6]: 7.8 min; BW Loss (%) ([2]; 60QD mpk ip, day 3-7, 10-14): 7.9%; Inhibition (%) ([2]; 60QD mpk ip, day 3-7, 10-14): 64%; Relative Activity ([2]; 60QD mpk ip, day 3-7, 10-14): <CTX
NC(=S)N/N=C/c1ncccc1NC(=O)OCc1cc(Cl)c(Cl)cc1OP(=O)(O)O [4,5-Di-Cl-(13)] | 3.14 L/kg | 392 µg·min/L | 1.7 h | 2.7 µg/mL | 21499 µg·min/L | – | 220 µg/mL | – | – | 10.0% | 57% | <CTX | –
COc1ccc(COC(=O)Nc2cccnc2/C=N/NC(N)=S)c(OP(=O)(O)O)c1 [4-CH3O (17)] | – | – | – | – | – | – | – | – | – | – | – | – | Half-life, Human Serum 37° C. (Human serum stability): 13.3 h
NC(=S)N/N=C/c1ncccc1NC(=O)OCc1c(OP(=O)(O)O)ccc(Cl)c1Cl [5,6-Di-Cl-(14)] | 2.32 L/kg | – | 1.6 h | 3.6 µg/mL | 34211 µg·min/L | – | 202 µg/mL | – | – | 7.0% | 59% | <CTX | –
NC(=S)N/N=C/c1ncccc1NC(=O)OCc1cc(C(F)(F)F)ccc1OP(=O)(O)O [5-CF3-(11)] | 2.74 L/kg | 280 µg·min/L | 1.1 h | 3.0 µg/mL | 9579 µg·min/L | 43 min | 156 µg/mL | 0.86 mL/min/kg | 0.08 L/kg | – | – | – | BW Loss (%) [2, 13]: 9.1%; Inhibition (%) [2, 13]: 77%; Relative Activity [2, 13]: <CTX
NC(=S)N/N=C/c1ccc(O)cn1 [5-HP] | – | – | – | – | – | – | – | – | – | – | – | – | activity in patients (solid tumors): inactive
NC(=S)N/N=C/c1ncccc1NC(=O)OCc1cc([N+](=O)[O-])ccc1OP(=O)(O)O [5-NO2-(8)] | 4.27 L/kg | 84 µg·min/L | 0.5 h | 1.9 µg/mL | 3396 µg·min/L | 19 min | 126 µg/mL | 2.33 mL/min/kg | 0.12 L/kg | 9.7% | 33% | <<CTX | –
NC(=S)N/N=C/c1ncccc1NC(=O)OCc1ccccc1OP(=O)(O)O [Ortho- (3), reference compound] | – | 698 µg·min/L | – | – | 63309 µg·min/L | – | – | – | – | – | – | – | toxicity to the animals [3]: toxic; Cmax ([1]; beagle, iv, prodrug in dog serum, single i.v. dose 7.2-8.5 mg/kg (equivalent to 3 mg/kg of 3-AP)): 125 µg/mL; half-life ([1]; beagle, iv, prodrug in dog serum, single i.v. dose 7.2-8.5 mg/kg, read-out: T1/2 of prodrug (converted)): 354 min; clearance ([1]; beagle, serum, iv, prodrug in dog, single i.v. dose 7.2-8.5 mg/kg, read-out: Cl of prodrug): 0.11 mL/min/kg; Vd ([1]; beagle, serum, iv, prodrug in dog, single i.v. dose 7.2-8.5 mg/kg, read-out: Vss of prodrug): 0.14 L/kg; reason treatment was stopped before the end of the experiment (M109 lung carinoma cells): severe toxic reactions or mortality of the mice; BW Loss (%) ([2]; 48QD mpk ip, day 5-9, 12-16): 12.6%; Inhibition (%) ([2]; 48QD mpk ip, day 5-9, 12-16): 70%; Relative Activity ([2]; 48QD mpk ip, day 5-9, 12-16): <CTX; activity versus cytoxan ([2]; M-109 solid tumor bearing mice): comparable activity to that of cytoxan; efficacy and toxicity versus parent 3-AP ([2]; M-109 solid tumor bearing mice): better efficacy with reduced toxicity than the parent 3-AP; efficacy on M109 lung carcinoma compared with the 3-AP parent drug at the MTD ([2]; mice): better efficacy
N/C(S)=N/N=C/c1ncccc1NC(=O)OCc1ccc(OP(=O)(O)O)cc1 [Para- (2), reference compound] | – | 74.5 µg·min/L | – | – | – | – | – | – | – | – | – | – | –
